Test results from ChEMBL document CHEMBL1909046, “DrugMatrix in vitro pharmacology data”.

How the values were obtained:
[1] = target: Epidermal growth factor receptor (Homo sapiens, UniProt P00533); experiment: DRUGMATRIX: Protein Tyrosine Kinase, EGF Receptor enzyme inhibition (substrate: Poly(Glu:Tyr)); assay type: cell-based, Insect cells; conditions: insect cells; Not Active = under 50% inhibition at 10 µM
Glycine receptor = Glycine receptor (Rattus norvegicus, UniProt P22771+P24524+P07727+P20781); assay type: cell membranes, Wistar, Spinal cord, Membrane; note: in other assays of this panel Not Active means under 50% inhibition at 10 µM
[2] = target: Vascular endothelial growth factor receptor 1 (Homo sapiens, UniProt P17948); assay type: cell-based; conditions: huvec; note: in other assays of this panel Not Active means under 50% inhibition at 10 µM
Sequence of Vascular endothelial growth factor receptor 1 (P17948 whole entry): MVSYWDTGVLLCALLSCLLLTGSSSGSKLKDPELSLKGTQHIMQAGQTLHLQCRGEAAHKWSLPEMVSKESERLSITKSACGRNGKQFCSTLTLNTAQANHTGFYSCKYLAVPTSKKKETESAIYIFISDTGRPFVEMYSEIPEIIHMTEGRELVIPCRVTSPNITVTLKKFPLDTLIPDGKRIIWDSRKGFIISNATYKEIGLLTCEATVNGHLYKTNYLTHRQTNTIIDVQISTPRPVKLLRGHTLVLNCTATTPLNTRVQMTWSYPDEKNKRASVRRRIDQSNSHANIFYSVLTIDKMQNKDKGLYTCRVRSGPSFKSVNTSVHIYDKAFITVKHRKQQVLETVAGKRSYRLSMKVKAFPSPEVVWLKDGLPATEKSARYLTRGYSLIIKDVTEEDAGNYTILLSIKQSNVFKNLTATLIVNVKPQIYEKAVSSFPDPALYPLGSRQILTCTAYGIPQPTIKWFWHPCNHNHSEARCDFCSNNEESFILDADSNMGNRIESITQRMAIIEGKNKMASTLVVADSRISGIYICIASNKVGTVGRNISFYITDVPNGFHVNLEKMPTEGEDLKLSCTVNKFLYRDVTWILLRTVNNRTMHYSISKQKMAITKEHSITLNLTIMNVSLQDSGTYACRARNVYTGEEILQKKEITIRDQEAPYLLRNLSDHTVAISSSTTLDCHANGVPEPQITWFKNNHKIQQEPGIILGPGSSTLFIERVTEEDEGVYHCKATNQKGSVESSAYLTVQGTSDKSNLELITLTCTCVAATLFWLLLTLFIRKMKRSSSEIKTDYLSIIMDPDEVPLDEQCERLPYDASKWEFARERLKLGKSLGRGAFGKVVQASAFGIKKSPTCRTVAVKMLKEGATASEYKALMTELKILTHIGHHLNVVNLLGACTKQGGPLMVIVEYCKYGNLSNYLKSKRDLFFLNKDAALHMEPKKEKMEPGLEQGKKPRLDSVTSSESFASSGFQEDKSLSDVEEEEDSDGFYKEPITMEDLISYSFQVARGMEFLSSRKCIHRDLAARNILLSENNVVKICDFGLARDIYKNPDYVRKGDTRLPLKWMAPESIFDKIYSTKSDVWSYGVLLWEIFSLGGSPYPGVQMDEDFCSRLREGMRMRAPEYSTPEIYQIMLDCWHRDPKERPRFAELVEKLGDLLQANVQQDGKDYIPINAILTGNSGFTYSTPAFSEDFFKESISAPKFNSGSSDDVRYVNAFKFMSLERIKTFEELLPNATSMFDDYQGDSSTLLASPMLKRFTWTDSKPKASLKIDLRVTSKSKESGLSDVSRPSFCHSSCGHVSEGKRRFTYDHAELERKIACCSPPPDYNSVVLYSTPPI

[3] = target: Receptor tyrosine-protein kinase erbB-2 (Homo sapiens, UniProt P04626); assay type: cell-based; conditions: insect cells;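 note: inhibition of HER2 kinase enzyme activity, measured with Poly(Glu:Tyr) as the phosphorylation substrate; in other assays of this panel Not Active means under 50% inhibition at 10 µM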
[4] = DRUGMATRIX: Nicotinic Acetylcholine radioligand binding (ligand: [125I] Epibatidine); assay type: cell membranes, Membrane; conditions: imr-32; Not Active = under 50% inhibition at 10 µM
Adenosine receptor A3 = target: T1, Adenosine receptor A3 (Homo sapiens, UniProt P0DMS8); assay type: cell membranes, CHO-K1, Membrane;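 note: radioligand binding assay with AB-MECA serving as the labeled ligand; in other assays of this panel Not Active means under 50% inhibition at 10 µM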
T1 sequence (P0DMS8 whole entry): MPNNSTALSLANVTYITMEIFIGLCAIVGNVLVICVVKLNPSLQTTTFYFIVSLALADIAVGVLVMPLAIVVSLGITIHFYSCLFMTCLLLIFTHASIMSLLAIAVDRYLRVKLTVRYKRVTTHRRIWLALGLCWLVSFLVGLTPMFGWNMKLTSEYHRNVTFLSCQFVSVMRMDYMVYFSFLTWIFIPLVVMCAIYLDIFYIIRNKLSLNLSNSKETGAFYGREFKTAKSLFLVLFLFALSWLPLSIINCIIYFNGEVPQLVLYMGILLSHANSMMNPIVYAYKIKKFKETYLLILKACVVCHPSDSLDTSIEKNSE

[5] = target: T2, Amine oxidase [flavin-containing] A (Homo sapiens, UniProt P21397); experiment: DRUGMATRIX: Monoamine Oxidase MAO-A enzyme inhibition (substrate: Kynuramine); design: species or system BTI-TN-5B1-4; conditions: bti-tn-5b1-4; Not Active = under 50% inhibition at 10 µM
T2 sequence (P21397 whole entry): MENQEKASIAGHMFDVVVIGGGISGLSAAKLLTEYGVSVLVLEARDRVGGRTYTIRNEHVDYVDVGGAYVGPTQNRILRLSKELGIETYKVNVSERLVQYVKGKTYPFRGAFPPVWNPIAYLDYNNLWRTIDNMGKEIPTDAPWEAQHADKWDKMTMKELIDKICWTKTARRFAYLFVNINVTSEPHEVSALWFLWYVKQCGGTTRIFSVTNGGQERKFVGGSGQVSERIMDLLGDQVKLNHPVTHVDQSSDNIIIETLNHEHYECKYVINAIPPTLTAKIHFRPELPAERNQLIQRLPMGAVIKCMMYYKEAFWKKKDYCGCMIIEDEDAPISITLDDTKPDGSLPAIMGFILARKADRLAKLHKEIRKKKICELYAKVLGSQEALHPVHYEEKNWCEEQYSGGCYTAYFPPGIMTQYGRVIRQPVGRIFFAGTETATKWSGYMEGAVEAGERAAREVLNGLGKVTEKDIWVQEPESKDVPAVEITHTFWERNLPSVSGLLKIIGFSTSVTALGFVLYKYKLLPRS

CC(N)C12CC3CC(CC(C3)C1)C2 (centres undefined) [RIMANTADINE]
Not Active: IC50 [1] | IC50 (Glycine receptor) | IC50 [2] | IC50 [3] | IC50 [4] | Ki [4] | IC50 (Adenosine receptor A3; cho-k1) | IC50 [5]

CC[C@H](C)C(=O)O[C@H]1CCC=C2C=C[C@H](C)[C@H](CC[C@@H]3C[C@@H](O)CC(=O)O3)[C@H]21 [MEVASTATIN]
Not Active: IC50 [1] | IC50 (Glycine receptor) | IC50 [2] | IC50 [3] | IC50 [4] | Ki [4] | IC50 (Adenosine receptor A3; cho-k1) | IC50 [5]

O=C(OC[C@H]1O[C@@H](OC(=O)c2cc(O)c(O)c(OC(=O)c3cc(O)c(O)c(O)c3)c2)[C@H](OC(=O)c2cc(O)c(O)c(OC(=O)c3cc(O)c(O)c(O)c3)c2)[C@@H](OC(=O)c2cc(O)c(O)c(OC(=O)c3cc(O)c(O)c(O)c3)c2)[C@@H]1OC(=O)c1cc(O)c(O)c(OC(=O)c2cc(O)c(O)c(O)c2)c1)c1cc(O)c(O)c(OC(=O)c2cc(O)c(O)c(O)c2)c1 [TANNIC ACID]
Not Active: IC50 [1] | IC50 (Glycine receptor) | IC50 [2] | IC50 [3] | IC50 [4] | Ki [4] | IC50 (Adenosine receptor A3; cho-k1) | IC50 [5]

LEAD(IV) ACETATE
Not Active: IC50 [1] | Ki [1] | IC50 (Glycine receptor) | Ki (Glycine receptor) | IC50 [2] | Ki [2] | IC50 [3] | Ki [3] | IC50 [4] | Ki [4] | IC50 (Adenosine receptor A3; cho-k1) | Ki (Adenosine receptor A3; cho-k1) | IC50 [5] | Ki [5]

CO[C@@H]1[C@@H](OC)[C@H](C)[C@@](O)(CC(=O)O)O[C@H]1[C@H](C)[C@H]1O[C@@]2(CC[C@@](C)([C@H]3CC[C@@](C)([C@@H]4O[C@@H]([C@H]5O[C@](C)(O)[C@H](C)C[C@@H]5C)C[C@@H]4O[C@@H]4C[C@H](OC)[C@@H](OC)[C@H](C)O4)O3)O2)C[C@H](O)[C@H]1C.N [MADURAMICIN]
Not Active: IC50 [1] | IC50 (Glycine receptor) | IC50 [2] | IC50 [3] | IC50 [4] | Ki [4] | IC50 (Adenosine receptor A3; cho-k1) | IC50 [5]

C[N+]1(C)[C@@H]2C[C@@H](OC(=O)[C@H](CO)c3ccccc3)C[C@H]1[C@@H]1O[C@@H]12.[Br-] [METHSCOPOLAMINE BROMIDE]
Not Active: IC50 [1] | IC50 (Glycine receptor) | IC50 [2] | IC50 [3] | IC50 [4] | Ki [4] | IC50 (Adenosine receptor A3; cho-k1) | IC50 [5]

Cc1nnc(NS(=O)(=O)c2ccc(N)cc2)s1 [SULFAMETHIZOLE]
Not Active: IC50 [1] | IC50 (Glycine receptor) | IC50 [2] | IC50 [3] | IC50 [4] | Ki [4] | IC50 (Adenosine receptor A3; cho-k1) | IC50 [5]

Cc1ccc(S(=O)(=O)NC(=O)NN2CCCCCC2)cc1 [TOLAZAMIDE]
Not Active: IC50 [1] | IC50 (Glycine receptor) | IC50 [2] | IC50 [3] | IC50 [4] | Ki [4] | IC50 (Adenosine receptor A3; cho-k1) | IC50 [5]

CCC(C)(C)C(=O)O[C@H]1C[C@@H](C)C=C2C=C[C@H](C)[C@H](CC[C@@H]3C[C@@H](O)CC(=O)O3)[C@H]21 [SIMVASTATIN]
Not Active: IC50 [1] | IC50 (Glycine receptor) | IC50 [2] | IC50 [3] | IC50 [4] | Ki [4] | IC50 (Adenosine receptor A3; cho-k1) | IC50 [5]

Cc1ccnc(NS(=O)(=O)c2ccc(N)cc2)n1 [SULFAMERAZINE]
Not Active: IC50 [1] | IC50 (Glycine receptor) | IC50 [2] | IC50 [3] | IC50 [4] | Ki [4] | IC50 (Adenosine receptor A3; cho-k1) | IC50 [5]

OC[C@@H](O)[C@@H](O)[C@H](O)[C@H](O)CO [MANNITOL]
Not Active: IC50 [1] | IC50 (Glycine receptor) | IC50 [2] | IC50 [3] | IC50 [4] | Ki [4] | IC50 (Adenosine receptor A3; cho-k1) | IC50 [5]

CCN(CC)N=O [N-NITROSODIETHYLAMINE]
Not Active: IC50 [1] | IC50 (Glycine receptor) | IC50 [2] | IC50 [3] | IC50 [4] | Ki [4] | IC50 (Adenosine receptor A3; cho-k1) | IC50 [5]

CC(=O)O[C@]1(C(C)=O)CC[C@H]2[C@@H]3C[C@H](C)C4=CC(=O)CC[C@]4(C)[C@H]3CC[C@@]21C [MEDROXYPROGESTERONE ACETATE]
Not Active: IC50 [1] | IC50 (Glycine receptor) | IC50 [2] | IC50 [3] | IC50 [4] | Ki [4] | IC50 (Adenosine receptor A3; cho-k1) | IC50 [5]

CCN1CCCC1CNC(=O)c1cc(S(N)(=O)=O)ccc1OC (centres undefined) [SULPIRIDE]
Not Active: IC50 [1] | IC50 (Glycine receptor) | IC50 [2] | IC50 [3] | IC50 [4] | Ki [4] | IC50 (Adenosine receptor A3; cho-k1) | IC50 [5]

CN1C[C@H](CNC(=O)OCc2ccccc2)C[C@@H]2c3cccc4c3c(cn4C)C[C@H]21 [METERGOLINE]
Not Active: IC50 [1] | IC50 (Glycine receptor) | IC50 [2] | IC50 [3] | IC50 [4] | Ki [4] | IC50 (Adenosine receptor A3; cho-k1) | IC50 [5]

CC(Cl)(Cl)Cl [TRICHLOROETHANE]
Not Active: IC50 [1] | IC50 (Glycine receptor) | IC50 [2] | IC50 [3] | IC50 [4] | Ki [4] | IC50 (Adenosine receptor A3; cho-k1) | IC50 [5]

CC1=C(/C=C/C(C)=C/C=C/C(C)=C/C(=O)O)C(C)(C)CCC1 [TRETINOIN]
5.27 µM: IC50 (Adenosine receptor A3; read-out: IC50)
Not Active: IC50 [1] | IC50 (Glycine receptor) | IC50 [2] | IC50 [3] | IC50 [4] | Ki [4] | IC50 [5]
2.98 µM: Ki (Adenosine receptor A3; read-out: Ki)

C=CCc1ccc2c(c1)OCO2 [SAFROLE]
Not Active: IC50 [1] | IC50 (Glycine receptor) | IC50 [2] | IC50 [3] | IC50 [4] | Ki [4] | IC50 (Adenosine receptor A3; cho-k1) | IC50 [5]

C1CCN2C[C@@H]3C[C@@H](CN4CCCC[C@@H]34)[C@H]2C1 [SPARTEINE]
Not Active: IC50 [1] | IC50 (Glycine receptor) | IC50 [2] | IC50 [3] | IC50 [4] | Ki [4] | IC50 (Adenosine receptor A3; cho-k1) | IC50 [5]
